Source: patent US20260240869A1, “ANTIPSEUDOMONAL FUSIDIC ACID COMPOUNDS” (priority 2022, published 2026)
Where two headings read alike, the source gives them in different places.

What was measured:
[1] = Hydrolysis of prodrug in CAMH; format: physicochemical; conditions: In CAMH at 37° C.
From the text: As a result, amidoxime prodrug versions containing variable amine linkers were designed (Table 8).

[2] = system: clinical isolates of P. aeruginosa; test: MIC against panel of clinical isolates of P. aeruginosa; format: cell-based, Pseudomonas aeruginosa; conditions: for MIC: Pseudomonas aeruginosa
Experimental: Antimicrobial Susceptibility Tests. Susceptibility testing was performed in biological triplicate, using the microdilution broth method as outlined by the Clinical and Laboratory Standards Institute. Bacteria were cultured with cation-adjusted Meuller-Hinton broth (Sigma-Aldrich; catalogue number: 90922) or Luria-Bertani (LB) broth (Lennox) in round-bottom 96-well plates (Corning; catalogue number: 3788).

E. coli MG1655 = test: MIC, E. coli MG1655; format: cell-based; conditions: Escherichia coli
In short: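 CLSI broth microdilution; biological triplicate; cation-adjusted MH or LB (Lennox) broth.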

Compound: CC(=O)O[C@H]1C[C@@]2(C)[C@@H](C[C@@H](O)[C@H]3[C@@]4(C)CC[C@@H](O)[C@@H](C)[C@@H]4CC[C@@]32C)/C1=C(\CCC=C(C)C)C(=O)O/N=C(\N)CNCCCNCCCNCCCN [FA prodrug, (3R, 4S,5S,8S,9S,10S,11R,13R,14S,16S,Z)-17-((Z)-1,14-diamino-22-methyl-17-oxo-16-oxa-4,8,12,15-tetraazatricosa-14,21-dien-18-ylidene)-3,11-dihydroxy-4,8,10,14-tetramethylhexadecahydro-1H-cyclopenta[a]phenanthren-16-yl acetate]
- period of hydrolysis to fusidic acid [1]: 48 h
- improved activity relative to FA against 75 clinical isolates ([2]; FIG. 5c): 64-256 ×
- MIC ([2]; AR Bank Isolate # 0054): 16 µg/mL
- MIC ([2]; AR Bank Isolate # 0064): 16 µg/mL
- MIC ([2]; AR Bank Isolate # 0090): 16 µg/mL
- MIC ([2]; AR Bank Isolate # 0092): 16 µg/mL
- MIC ([2]; AR Bank Isolate # 0095): 16 µg/mL
- MIC ([2]; AR Bank Isolate # 0100): 16 µg/mL
- MIC ([2]; AR Bank Isolate # 0103): 16 µg/mL
- MIC ([2]; AR Bank Isolate # 0110): 16 µg/mL
- MIC ([2]; AR Bank Isolate # 0229): 16 µg/mL
- MIC ([2]; AR Bank Isolate # 0230): 16 µg/mL
- MIC ([2]; AR Bank Isolate # 0231): 8 µg/mL
- MIC ([2]; AR Bank Isolate # 0232): 16 µg/mL
- MIC ([2]; AR Bank Isolate # 0233): 16 µg/mL
- MIC ([2]; AR Bank Isolate # 0234): 8 µg/mL
- MIC ([2]; AR Bank Isolate # 0235): 8 µg/mL
- MIC ([2]; AR Bank Isolate # 0236): 16 µg/mL
- MIC ([2]; AR Bank Isolate # 0237): 16 µg/mL
- MIC ([2]; AR Bank Isolate # 0239): 8 µg/mL
- MIC ([2]; AR Bank Isolate # 0240): 16 µg/mL
- MIC ([2]; AR Bank Isolate # 0241): 16 µg/mL
- MIC ([2]; AR Bank Isolate # 0242): 8 µg/mL
- MIC ([2]; AR Bank Isolate # 0243): 16 µg/mL
- MIC ([2]; AR Bank Isolate # 0244): 16 µg/mL
- MIC ([2]; AR Bank Isolate # 0245): 16 µg/mL
- MIC ([2]; AR Bank Isolate # 0246): 8 µg/mL
- MIC ([2]; AR Bank Isolate # 0248): 8 µg/mL
- MIC ([2]; AR Bank Isolate # 0250): 16 µg/mL
- MIC ([2]; AR Bank Isolate # 0252): 16 µg/mL
- MIC ([2]; AR Bank Isolate # 0254): 32 µg/mL
- MIC ([2]; AR Bank Isolate # 0265): 16 µg/mL
- MIC ([2]; AR Bank Isolate # 0763): 16 µg/mL
- MIC ([2]; AR Bank Isolate # 0767): 16 µg/mL
- MIC ([2]; AR Bank Isolate # 0769): 16 µg/mL
- MIC ([2]; AR Bank Isolate # 0772): 8 µg/mL
- MIC ([2]; Carle Isolate ID # Cl-02): 8 µg/mL
- MIC ([2]; Carle Isolate ID # Cl-03): 8 µg/mL
- MIC ([2]; Carle Isolate ID # Cl-04): 16 µg/mL
- MIC ([2]; Carle Isolate ID # Cl-05): 8 µg/mL
- MIC ([2]; Carle Isolate ID # Cl-06): 8 µg/mL
- MIC ([2]; Carle Isolate ID # Cl-07): 8 µg/mL
- MIC ([2]; Carle Isolate ID # Cl-08): 8 µg/mL
- MIC ([2]; Carle Isolate ID # Cl-09): 8 µg/mL
- MIC ([2]; Carle Isolate ID # Cl-10): 16 µg/mL
- MIC ([2]; Carle Isolate ID # Cl-11): 8 µg/mL
- MIC ([2]; Carle Isolate ID # Cl-12): 8 µg/mL
- MIC ([2]; Carle Isolate ID # Cl-13): 16 µg/mL
- MIC ([2]; Carle Isolate ID # Cl-14): 8 µg/mL
- MIC ([2]; Carle Isolate ID # Cl-15): 8 µg/mL
- MIC ([2]; Carle Isolate ID # Cl-19): 8 µg/mL
- MIC ([2]; Cubist Strain ID # 996): 8 µg/mL
- MIC ([2]; Cubist Strain ID # 997): 8 µg/mL
- MIC ([2]; Cubist Strain ID # 998): 8 µg/mL
- MIC ([2]; Cubist Strain ID # 999): 8 µg/mL
- MIC ([2]; Cubist Strain ID # 1000): 16 µg/mL
- MIC ([2]; Cubist Strain ID # 1001): 16 µg/mL
- MIC ([2]; Cubist Strain ID # 1174): 16 µg/mL
- MIC ([2]; Cubist Strain ID # 1175): 16 µg/mL
- MIC ([2]; Cubist Strain ID # 1176): 16 µg/mL
- MIC ([2]; Cubist Strain ID # 1280): 16 µg/mL
- MIC ([2]; Cubist Strain ID # 1282): 16 µg/mL
- MIC ([2]; Cubist Strain ID # 1283): 16 µg/mL
- MIC ([2]; Cubist Strain ID # 1284): 16 µg/mL
- MIC ([2]; Cubist Strain ID # 1586): 16 µg/mL
- MIC ([2]; Cubist Strain ID # 1590): 32 µg/mL
- MIC ([2]; Cubist Strain ID # 1591): 32 µg/mL
- MIC ([2]; Cubist Strain ID # 1592): 32 µg/mL
- MIC ([2]; Cubist Strain ID # 1905): 16 µg/mL
- MIC ([2]; Cubist Strain ID # 1906): 16 µg/mL
- MIC ([2]; Cubist Strain ID # 2242): 8 µg/mL
- MIC ([2]; Cubist Strain ID # 2243): 16 µg/mL
- MIC ([2]; Cubist Strain ID # 2244): 8 µg/mL
- MIC ([2]; Other strains (ref.) 1113): 16 µg/mL
- MIC ([2]; Other strains (ref.) 1727): 8 µg/mL
- MIC (E. coli MG1655; MG1655, read-out: E. coli MG1655 MIC): 4 µg/mL
- MIC (E. coli MG1655; MG1655, read-out: MIC E. coli MG1655): 4 µg/mL
